Test results from patent publication US20040106588A1 (priority 2002, published 2004).
Where two headings read alike, the source gives them in different places. One block for each compound: values may come before it.

Assays:
[1] = system: II-4 human squamous cell skin cancer cells; experiment: In vitro sulforhodamine B surviving fraction study of alpha-DFMO, triamcinolone and diclofenac; type: cell-based; details: single drug, Day 1 to Day 7
Procedure: This study was directed to II-4 human squamous cell skin cancer cells.
The cell culture was maintained as a monolayer culture. The cells were plated in 96 well microtiter plates on Day 0 of the study. Some of such wells were used as control wells, so no drugs were added thereto. The aforementioned combination of drugs was added to the microtiter test wells on Day 1. On Day 7, the plates were fixed with cold 10% trichloroacetic acid, and then washed four times with distilled water. Each plate was then stained with 0.4% sulforhodamine B. Excess stain was then removed by washing the plate four times with 1% acetic acid. The stained dye is then solubilized with 50 mM Tris. The stained plates were then “read”, i.e., measured for optical density, on an automatic plate reader at 540 nm. A lower optical density corresponds to a smaller volume of cancerous cells, and a higher optical density corresponds to a larger volume of cancerous cells. A surviving fraction factor fs is then computed for the treated well plates by taking the mean optical density of the treated well plates and dividing by the mean optical density of the control well plates.
As explained in the aforementioned article by Alberts, et al., a mathematically-derived expected fraction factor (fs*) can be computed for each three-drug combination by multiplying together the individual fraction factors for the three individual drugs. A ratio can then be computed for the actual experimentally-determined fraction factor fs divided by the expected fraction factor fs*, and this ratio is presented in the rightmost column of the table in FIG. 7. […] The lower the ratio, the more synergistic is the combination.

colon adenocarcinomas = details: studies referred to by Reddy et al; cited from earlier work
II-4 cells in SCID mice = experiment: Third study: topical alpha-DFMO, triamcinolone or the combination on II-4 tumor volume in SCID mice; type: in vivo, mouse; details: single agent, topical daily from 24 hours after implantation; alpha-DFMO 5% or 10%, triamcinolone 0.05% or 0.1%; FIG. 6
Procedure: The control groups received either no treatment (n=4), or the ointment base (hydrophilic ointment, U.S.P. alone (n=4), or the ointment base (hydrophilic ointment, U.S.P. alone (n=4). Treatments were given daily to the tumor-bearing […] skin continuously beginning 24 hours after tumor implantation. Palpable tumors were measured bi-dimensionally using calipers, three times per week, until tumor sizes approximated 1,500 mm^3 (about 1.5 g). The mice were then euthanized.

actinic keratoses [2] = details: 0.5% cream added to topical fluorouracil; cited from earlier work
[3] = Skin reactions after topical application in studies treating actinic keratoses; type: in vivo, human; details: alpha-DFMO alone, without topical steroid or NSAID, past studies
Text: The new combination also provides a new method for treating vulvar neoplasia which is much more likely to be tolerated than currently available methods. […] Though topical application to the inside of the mouth may be more difficult, it is preferably achieved by providing a thick gel or cream, and applying to the affected area, preferably during the middle of the night when the mouth is dry.

[4] = Systemic uptake after topical alpha-DFMO, animal studies; type: in vivo; details: topical application
Text: The generic name for alpha-DFMO is eflomithine, which is a racemic mixture of two enantiomers. […] Nonetheless, it may be possible to obtain the advantages of the present invention as described above using only one or the other of the two enantiomers that form the racemic mixture of alpha-DFMO; accordingly, the use of the term “alpha-DFMO” herein should be understood, for purposes of the present patent application, to include both the racemic mixture of the two enantiomers that normally make up alpha-DFMO, as well as each of the two enantiomers that collectively make up the racemic mixture of alpha-DFMO.

[5] = system: cervical intraepithelial neoplasia level III; details: cited from earlier work
UVB-induced skin cancers [6] = details: p.o.; 38% in placebo treated controls; cited from earlier work
UVB-induced skin cancers [7] = details: topical, acetone vehicle; cited from earlier work
[8] = system: human colon tumor xenograft (T6) cells; details: in vitro; cited from earlier work
[9] = system: human lung adenocarcinoma cell line (A549); details: A549, in vitro; cited from earlier work
[10] = system: polyamine de novo synthesis and DNA polymerase; details: colon and small intestine; cited from earlier work
[11] = system: Human Cervical Epithelial and Cancerous Cell Lines; details: in vitro, dose dependent and time dependent, partially through inducing apoptosis; cited from earlier work
actinic keratoses [12] = details: topical hydrophilic cream, human subjects; cited from earlier work
[13] = topical, cited from earlier work
[14] = 0.06 to 1.0 g/m^2 per day for 30 days

SMILES: O=C(O)Cc1ccccc1Nc1c(Cl)cccc1Cl [diclofenac]
surviving fraction factor fs ([1]; 150 μM): 0.703
surviving fraction factor fs ([1]; 175 μM): 0.518

SMILES: CN1C(C(=O)Nc2ccccn2)=C(O)c2ccccc2S1(=O)=O [piroxicam]
effect on colon adenocarcinomas (colon adenocarcinomas): inhibited colon adenocarcinomas

SMILES: CC1(C)O[C@@H]2C[C@H]3[C@@H]4CCC5=CC(=O)C=C[C@]5(C)[C@@]4(F)[C@@H](O)C[C@]3(C)[C@]2(C(=O)CO)O1 [triamcinolone, triamcinolone acetonide]
rate of tumor growth (tumor volume over fifty days) (II-4 cells in SCID mice): decreases the rate of tumor growth
surviving fraction factor fs ([1]; 100 μM): 0.999
surviving fraction factor fs ([1]; 150 μM): 0.999
surviving fraction factor fs ([1]; 200 μM): 0.872
effect on inflammatory response to fluorouracil (actinic keratoses [2]): reduce inflammatory response
effect on the effectiveness of fluorouracil (actinic keratoses [2]): did not alter the effectiveness of the fluorouracil

SMILES: CC(C)Cc1ccc(C(C)C(=O)O)cc1 (centres unmarked) [ibuprofen]
effect on colon adenocarcinomas (colon adenocarcinomas): inhibited colon adenocarcinomas

SMILES: Cc1c(-c2cnccn2)ssc1=S [oltipraz]
effect on colon adenocarcinomas (colon adenocarcinomas): inhibited colon adenocarcinomas

SMILES: C=CCSSCC=C [diallyl disulfide]
effect on colon adenocarcinomas (colon adenocarcinomas): inhibited colon adenocarcinomas

systemic uptake [4]: negligible systemic uptake
SMILES: NCCC[C@](N)(C(=O)O)C(F)F (racemic) [alpha-DFMO, Alpha-Difluoromethylornithine]
rate of tumor growth (tumor volume over fifty days) (II-4 cells in SCID mice): decreases the rate of tumor growth
surviving fraction factor fs ([1]; 50 μM): 0.749
surviving fraction factor fs ([1]; 75 μM): 0.807
incidence of skin reactions [3]: ~20%
overall response rate ([5]; 0.06 to 1.0 g/m^2 per day for 30 days, 30 women): 50%
patients experiencing a complete response [5, 14]: five out of thirty
patients experiencing a partial response (reduction to levels I or II) [5, 14]: ten out of thirty
toxicity [5, 14]: minimal toxicity
dose down to which serum polyamine modulation was significant ([5]; serum): 0.125 g/m^2 per day
dose level down to which tissue polyamine modulation was significant ([5]; tissue): 0.5 g/m^2 per day
UVB-induced skin cancers in treated animals (UVB-induced skin cancers [6]): 9%
UVB-induced skin cancers (UVB-induced skin cancers [7]): dramatically reduced
growth inhibition [8]: dose-dependent growth-inhibitory effect
growth inhibition [9]: dose-dependent growth-inhibitory effect
DMH-induced activation of polyamine de novo synthesis and DNA polymerase [10]: completely prevented
growth of cervical pre-cancerous and cancerous cells [11]: inhibits the growth
number of AKs on the arms (actinic keratoses [12]): reduced the number of AKs
effect on colon adenocarcinomas (colon adenocarcinomas): inhibited colon adenocarcinomas

SMILES: CC(=O)Oc1ccccc1C(=O)O [aspirin]
effect on colon adenocarcinomas (colon adenocarcinomas): inhibited colon adenocarcinomas

SMILES: O=c1[nH]cc(F)c(=O)[nH]1 [5-FU, 5-fluorouracil]
tolerability ([13]; in the vagina): relatively well tolerated
tolerability ([13]; on the vulva): extremely poorly tolerated

SMILES: CC1=C(CC(=O)O)c2cc(F)ccc2/C1=C\c1ccc([S+](C)[O-])cc1 (centres unmarked) [sulindac]
effect on colon adenocarcinomas (colon adenocarcinomas): inhibited colon adenocarcinomas
